Test results taken from patent US20240336617A1, “Substituted Bimane Compounds and Methods of Use Thereof” (THE TRUSTEES OF THE UNIVERSITY OF PENNSYLVANIA, priority 2023, published 2024).
“Also recorded” adds a separate entry of the source. Where two headings read alike, the source gives them in different places.

How the values were obtained:
[1] = Fluorescence (emission) measurements; format: physicochemical;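 further: fluorescence emission spectra recorded on a spectrofluorometer, with each compound excited at its own absorption maximum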
Method: The fluorescence spectrum of each derivative (150 μL) was measured on a Photon Technology International (PTI) QuantaMaster™ 40 fluorescence spectrometer by excitation at the maximum absorption wavelength for each compound.
The fluorescence spectrum of each derivative (150 μL) was measured on a Photon Technology International (PTJ) QuantaMaster™ 40 fluorescence spectrometer by excitation at the maximum absorption wavelength for each compound.

[2] = Molar absorptivity determination; format: physicochemical;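 further: molar absorptivity derived from UV-Vis absorbance spectra recorded for each derivative on a spectrometer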
Method: The absorbance spectrum of each derivative (150 μL) was measured on a Thermo Scientific Genesys 150 UV-Vis spectrometer, using 50:50 ACN/PBS as a blank.
Molar absorptivity determination. […] The absorbance spectrum of each derivative (150 μL) was measured on a Thermo Scientific Genesys 150 UV-Vis spectrometer, using 50:50 ACN/PBS as a blank.

[3] = Fluorescent quantum yield (QY) measurements; format: physicochemical
Method: For each QY measurement, the incident excitation light spectrum was collected with 1 mL of solvent. […] Using the JASCO Quantum Yield Software, the dye QY was calculated by dividing the dye fluorescence intensity by the difference in incident light intensity in the presence and absence of dye. The minimum excitation wavelength for a full excitation incident spectrum using this setup is 360 nm.
Fluorescent quantum yield (QY) measurements. For each QY measurement, the incident excitation light spectrum was collected with 1 mL of solvent. After measuring the incident light intensity, dye (3 and 5a-5k) was added to the solvent from a concentrated stock solution to a final concentration of […] and the new spectrum (fluorescence intensity and new incident light intensity) was collected. Using the JASCO Quantum Yield Software, the dye QY was calculated by dividing the dye fluorescence intensity by the difference in incident light intensity in the presence and absence of dye. The minimum excitation wavelength for a full excitation incident spectrum using this setup is 360 nm.

[4] = biological target: T1, Aβ1-42 fibrils (Homo sapiens, UniProt P05067); test: Fluorescence and excitation spectra with Aβ1-42 fibrils; format: binding
T1 construct: The β-amyloid (1-42) peptide, human; purchased Genscript RP10017
T1 sequence (P05067 672-713): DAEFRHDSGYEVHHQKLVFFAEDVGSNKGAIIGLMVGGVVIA
Method: Fluorescence measurements were performed using a PTI QuantaMaster™ 40 fluorescence spectrometer. Fluorescence spectra of 10 μM probes (concentrated stock solution prepared as 10 mM in DMSO) (7j, 7k, 7l, 7m, and ThT) in PBS buffer were measured in the absence and presence of 50 μM Aβ1-42 fibrils (stock solution 1 mM Aβ1-42 in 10 mM phosphate buffer, pH 7.4).
Excitation spectral measurements were performed using a PTI QuantaMaster™ 40 fluorescence spectrometer. Excitation spectra of 10 μM probes (concentrated stock solution prepared as 10 mM in DMSO) (7j, 7k, 7l, 7m, and ThT) in PBS buffer were measured in the absence and presence of 50 μM Aβ1-42 fibrils (stock solution 1 mM Aβ1-42 in phosphate buffer).
Fluorescence measurements were performed using a PTI QuantaMaster™ 40 fluorescence spectrometer. Fluorescence spectra of 10 μM probes (concentrated stock solution prepared as 10 mM in DMSO) (5j, 5k and ThT) in PBS buffer were measured in the absence and presence of 50 μM Ab1-42 fibrils (stock solution 1 mM Ab1-42 in 10 mM phosphate buffer, pH 7.4).
Excitation spectral measurements were performed using a PTI QuantaMaster 40 fluorescence spectrometer. Excitation spectra of 10 μM probes (concentrated stock solution prepared as 10 mM in DMSO) (5j, 5k and ThT) in PBS buffer were measured in the absence and presence of 50 μM Ab1-42 fibrils (stock solution 1 mM Ab1-42 in phosphate buffer). […]

[5] = Absorbance measurements (UV-Vis); conditions: for Abs. λabs: 25 μM
Method: Samples were individually diluted to the final concentration of 25 μM (500 μL) using 50:50 acetonitrile in phosphate buffered saline (ACN/PBS). The absorbance spectrum of each derivative (150 μL) was measured on a Thermo Scientific Genesys 150 UV-Vis spectrometer, using 50:50 ACN/PBS as a blank.

[6] = system: αS fibrils versus tau fibrils; test: Amyloid selectivity by plate reader, αS versus tau fibrils; format: binding
Method: Experiments were performed on the Tecan Spark in Greiner 96 well flat black ½ area plates using the following parameters: excitation and emission band widths 5 nm, lag time 0 μs, integration time 40 μs. A 10 mM DMSO stock solution of probes (7j-7m) and 100 μM stock of αS fibrils were used in the study described herein.

[7] = biological target: T2, amplified αS fibrils (AFs) from AD patient brain extracts (Homo sapiens, UniProt P37840); test: Fluorescence measurements with AD patient cases (lysate, AFs, PFFs); format: binding; conditions: lysate or AFs and probe 1 μM
T2 construct: made in house; host or cells: recombinant αS monomer, seeded with sarkosyl-insoluble extract of human frontal cortex (AD or PDD)
Method: All procedures were performed in accordance with local institutional review board guidelines. Written informed consent for autopsy and analysis of tissue sample data was obtained either from patients themselves or their next of kin. Frozen postmortem human frontal cortex brain tissues from three patients diagnosed with Alzheimer's disease (AD) and three patients diagnosed with Parkinson's disease with dementia (PDD) were selected for sequential extraction of αS aggregates based on a high burden of αS pathology determined by immunohistochemical staining. […] These final sarkosyl-insoluble fractions are referred to as “brain extracts.: The amount of αS in the brain extracts was determined by sandwich ELISA using Syn9027, a mono-clonal antibody (Mab) to αS, and the protein concentrations were examined by bicinchoninic acid (BCA) assay. […]
(§1) Brain-derived αS aggregates in extract samples from three AD and three PDD cases (FIG. 38A) were used as seeds for templated aggregation of recombinant αS monomer. […] After seven days of incubation, amplification progress was determined by removing an aliquot and diluting tenfold in DPBS to a final αS concentration of 3.5 μM. […] Equal volumes of supernatant and pellet fractions were analyzed on SDS-PAGE gels and Western blot, with amplified aggregates migrating to the pellet fraction (FIG. 38B). […]

[8] = biological target: T3, amplified αS fibrils (AFs) from PDD patient brain extracts (Homo sapiens, UniProt P37840); test: Fluorescence measurements with PDD patient cases (lysate, AFs, PFFs); format: binding; conditions: lysate or AFs and probe 1 μM
T3 construct: made in house; host or cells: recombinant αS monomer, seeded with sarkosyl-insoluble extract of human frontal cortex (AD or PDD)
Method: All procedures were performed in accordance with local institutional review board guidelines. Written informed consent for autopsy and analysis of tissue sample data was obtained either from patients themselves or their next of kin. Frozen postmortem human frontal cortex brain tissues from three patients diagnosed with Alzheimer's disease (AD) and three patients diagnosed with Parkinson's disease with dementia (PDD) were selected for sequential extraction of αS aggregates based on a high burden of αS pathology determined by immunohistochemical staining. In brief, 5-10 g of frontal cortical gray matter were homogenized in five volumes (W/V) of high-salt (HS) buffer (50 mM Tris-HCl pH 7.4, 750 mM NaCl, 10 mM NaF, 5 mM EDTA) with protease and protein phosphatase inhibitors, incubated on ice for 20 min and centrifuged at 100,000×g for 30 min. The pellets were then re-extracted with HS buffer, followed by sequential extractions with five volumes of 1% Triton X-100-containing HS buffer and 1% Triton X-100-containing HS buffer with 30% sucrose. The pellets were then re-suspended and homogenized in 1% sarkosyl-containing HS buffer, rotated at room temperature for 2 h or at 4° C. overnight and centrifuged at 100,000×g for 30 min. […] These final sarkosyl-insoluble fractions are referred to as “brain extracts.: The amount of αS in the brain extracts was determined by sandwich ELISA using Syn9027, a mono-clonal antibody (Mab) to αS, and the protein concentrations were examined by bicinchoninic acid (BCA) assay. […]
as §1

[9] = background statement; cited from earlier work
[10] = biological target: T4, αS fibrils (Homo sapiens, UniProt P37840); test: Fluorescence spectra with αS fibrils; format: binding
T4 construct: intein-His6 (C, cleaved yes); made in house; host or cells: Escherichia coli BL21
Method: Fluorescence measurements were performed using a PTI QuantaMaster™ 40 fluorescence spectrometer. Fluorescence spectra of 10 μM probes (concentrated stock solution prepared as 10 mM in DMSO) (7b, 7c, 7d, 7e, 7f, 7g and 7h) in PBS buffer were measured by excitation at their absorbance maximum wavelength in the absence and presence of 50 μM αS fibrils (stock solution 100 μM αS fibrils in PBS buffer).
Fluorescence spectra with αS fibrils. Fluorescence measurements were performed using a PTI QuantaMaster 40 fluorescence spectrometer. Fluorescence spectra of 10 μM probes (concentrated stock solution prepared as 10 mM in DMSO) (5b-5f and 5h) in PBS buffer were measured by excitation at their absorbance maximum wavelength in the absence and presence of 50 μM αS fibrils (stock solution 100 μM αS fibrils in PBS buffer). […] FIGS. 77A-77F show fluorescence spectra of probes (5b-5f and 5h) with and without αS fibrils. Final concentrations of probes and αS fibrils were 10 μM and 50 μM, respectively. Emission spectra collected at each dye's maximum absorption wavelength. Ex/Em slit widths: 3 nm/3 nm. […] Absorbance is shown in FIG. 78A and FIG. 78B, whereas FIG. 78C and FIG. 78D show excitation spectra of probes 5j and 5k with and without αS fibrils. Final probe and fibrils concentrations were 10 μM and 50 μM, respectively. […] Emission wavelengths were 575 nm for 5j, 580 nm for 5k. Ex/Em slit widths: 3 nm/3 nm. […] Black line indicates incident light (αS fibrils without probe) and blue line indicates sample (αS fibrils with probe). Excitation at λexc=435 nm for 5j and λexc=463 nm for 5k and spectral collection (400-800 nm). Final concentrations of the probe and αS fibrils are the 100 μM. Ex/Em slit widths: 5 nm/5 nm.

[11] = biological target: T4, αS fibrils; test: Competition binding with ThT on αS fibrils

Cc1c(C)n2c(/C=C/c3nc4ccc(N(C)C)cc4s3)c(C)c(=O)n2c1=O [Compound 8f, (E)-3-(2-(6-(dimethylamino)benzo[d]thiazol-2-yl)vinyl)-2,5,6-trimethyl-1H,7H-pyrazolo[1,2-a]pyrazole-1,7-dione]
Stokes shift ([1]; ACN only): 189 nm | Em. λem ([1]; ACN only, 25 μM): 624 nm | Stokes shift ([1]; ACN:PBS (50:50 v/v)): 195 nm | ε ([2]; ACN only): 25212 M⁻¹ cm⁻¹ | ε ([2]; ACN:PBS (50:50 v/v)): 22370 M⁻¹ cm⁻¹ | Q.Y. ([3]; ACN only): 44.2% | Q.Y. ([3]; ACN:PBS (50:50 v/v)): 0.77% | fluorescence turn on with Aβ1-42 fibrils [4]: high turn on of fluorescence in the presence of PFFs; also recorded: selective fluorescence increases in the presence of Aβ1-42 fibrils | Abs. λabs ([5]; ACN only): 435 nm | Abs. λabs ([5]; ACN:PBS (50:50 v/v)): 447 nm

Cc1ccc2c(c1)sc(-c1ccc(N(C)C)cc1)[n+]2C.[Cl-] [ThT, Thioflavin-T, reference compound]
turn on with αS and tau fibrils [6]: high turn on with both αS and tau; also recorded: high turn-on with both αS and tau | fluorescence detection of AD amplified fibrils (AFs) [7]: barely registers significance for detection of AFs in AD samples | fluorescence detection of PDD amplified fibrils (AFs) [8]: does not effectively detect these amplified fibrils; also recorded: unable to differentiate the lysates and AFs of PDD samples | Stokes shift [9]: ~50 nm

(E)-3-(4-(dimethylamino)styryl)-2,5,6-trimethyl-1H,7H-pyrazolo[1,2-a]pyrazole-1,7-dione [Compound 7l]
concentration-dependent shift in the emission maximum with αS fibrils [10]: binding at limited sites with high affinity | competition with ThT on αS PFFs [11]: displacement of the known amyloid-binding dye ThT | Absorbance Wavelength ([5]; ACN:PBS buffer (50:50 v/v), Table 11): 385 nm
